Experimental data from ChEMBL document CHEMBL3616373, “Identification of N-sulfonyl-tetrahydroquinolines as RORc inverse agonists” (Bioorg Med Chem Lett, 2015).

Columns and labels:
[1] = target: T1, Nuclear receptor ROR-gamma (Homo sapiens) (UniProt P51449); experiment: Inverse agonist activity at N-terminal 6xHis-tagged human RORc ligand binding domain (241 to 486) expressed in bacterial expression system assessed as inhibition of SRC1 co-activator peptide recruitment after 3 hrs by TR-FRET analysis relative to apo-RORc ligand binding domain
T1 sequence (whole entry): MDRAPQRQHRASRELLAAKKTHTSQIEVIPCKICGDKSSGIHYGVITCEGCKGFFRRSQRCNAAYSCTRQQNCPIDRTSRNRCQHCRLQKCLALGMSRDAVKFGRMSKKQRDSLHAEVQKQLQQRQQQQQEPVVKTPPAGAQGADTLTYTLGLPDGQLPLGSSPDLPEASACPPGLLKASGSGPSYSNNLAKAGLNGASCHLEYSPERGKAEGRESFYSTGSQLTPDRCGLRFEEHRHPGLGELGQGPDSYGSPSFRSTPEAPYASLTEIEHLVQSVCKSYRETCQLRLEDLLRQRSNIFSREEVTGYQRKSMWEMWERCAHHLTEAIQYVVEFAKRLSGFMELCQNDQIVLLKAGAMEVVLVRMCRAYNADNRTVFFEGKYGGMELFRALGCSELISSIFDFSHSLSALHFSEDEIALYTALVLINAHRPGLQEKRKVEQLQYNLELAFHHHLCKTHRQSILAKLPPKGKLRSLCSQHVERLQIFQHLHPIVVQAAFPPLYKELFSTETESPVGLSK

[2] = target: T2, Nuclear receptor ROR-gamma (Homo sapiens, UniProt P51449); experiment: Inverse agonist activity at N-terminal 6xHis-tagged human RORc ligand binding domain (241 to 486) expressed in bacterial expression system assessed as inhibition of SRC1 co-activator peptide recruitment after 3 hrs by TR-FRET analysis; format: functional
T2 sequence (P51449 whole entry): T1 sequence (whole entry)

[3] = target: T2, Nuclear receptor ROR-gamma; experiment: Displacement of [3H2]-25-hydroxycholesterol from N-terminal 6xHis-tagged human RORc ligand binding domain (241 to 486) expressed in bacterial expression system after 3 hrs by scintillation counting analysis

Efficacy [1] | EC50 [2] | IC50 [3] | SMILES
-54% | 7.4 µM |  | O=C(Nc1ccc2c(c1)N(S(=O)(=O)c1ccc(F)cc1)CCC2)c1ccno1
-77% | 2.1 µM | 1.1 µM | O=C(Nc1ccc2c(c1)N(S(=O)(=O)c1cccs1)CCC2)c1c(F)cccc1F
 | > 10 µM |  | O=C(Nc1ccc2c(c1)CCN2S(=O)(=O)c1ccc(F)cc1)c1c(F)cccc1F
 | > 10 µM |  | O=C(Nc1ccc2c(c1)N(C(=O)c1ccccc1)CCC2)c1c(F)cccc1F
 | > 10 µM |  | O=C(Nc1ccc2c(c1)CCCN2S(=O)(=O)c1ccc(F)cc1)c1c(F)cccc1F
-96% | 0.23 µM |  | O=C(Nc1ccc2c(c1)N(S(=O)(=O)c1ccc(F)cc1)CCCC2)c1c(F)cccc1F
-89% | 0.55 µM |  | O=C(Nc1ccc2c(c1)N(S(=O)(=O)c1ccc(F)cc1)CCC2)c1ccccc1
 | > 10 µM |  | O=C(Nc1ccc2c(c1)CCCCN2S(=O)(=O)c1ccc(F)cc1)c1c(F)cccc1F
-77% | 0.57 µM |  | O=S(=O)(Nc1ccc2c(c1)N(S(=O)(=O)c1ccc(F)cc1)CCC2)c1ccccc1
-69% | 0.47 µM |  | O=C(Nc1ccc2c(c1)N(S(=O)(=O)c1ccc(F)cc1)CCC2)c1cccc(F)c1
-91% | 0.23 µM | 0.18 µM | O=C(Nc1ccc2c(c1)N(S(=O)(=O)c1ccccc1)CCC2)c1c(F)cccc1F
 | > 10 µM |  | O=C(Nc1ccc2c(c1)N(S(=O)(=O)c1ccc(F)cc1)CCC2)c1cnccn1

Second part, the compound before the results:

SMILES | Efficacy [1] | EC50 [2] | IC50 [3]
CC(=O)Nc1ccc2c(c1)N(S(=O)(=O)c1ccc(F)cc1)CCC2 |  | > 10 µM | 
O=C(Nc1ccc2c(c1)N(S(=O)(=O)c1ccc(F)cc1)CCC2)c1ccc(F)cc1 | -75% | 1.7 µM | 
O=C(Nc1ccc2c(c1)N(S(=O)(=O)c1ccc(F)cc1)CCC2)c1ccccc1F | -81% | 0.42 µM | 
O=C(Nc1ccc2c(c1)N(S(=O)(=O)c1ccc(F)cc1)CCC2)C1CC1 | -63% | 3.6 µM | 
Cc1ccc(S(=O)(=O)N2CCCc3ccc(NC(=O)c4c(F)cccc4F)cc32)cc1 | -95% | 0.15 µM | 0.11 µM
O=C(Nc1ccc2c(c1)N(S(=O)(=O)c1ccc(F)cc1)CCC2)c1ccncc1 | -58% | 6.8 µM | 
Cc1ccccc1C(=O)Nc1ccc2c(c1)N(S(=O)(=O)c1ccc(F)cc1)CCC2 | -80% | 0.12 µM | 
CS(=O)(=O)N1CCCc2ccc(NC(=O)c3c(F)cccc3F)cc21 |  | > 10 µM | 
